This is an account of results in paper PMC6766977 (International Journal of Cancer, 2019).

The test system of series [1] is KuCaP‐1 prostate cancer xenograft. As to the kind of experiment: KuCaP-1 patient-derived xenograft in vivo efficacy. Set-up: species or system mice. Particulars: for ΔT/ΔC tumor volume: Day 68; for Maximal body weight loss: vehicle group 10%.
A further series relates to LNCaP. As to the kind of experiment: Cell viability. Format: cell-based, human. Particulars: read-out: IC50 inhibition of cell viability LNCaP; 1 nM R1881, 6 days; mean ± SD.
Series [2] relates to LAPC‐4 prostate cancer xenograft. As to the kind of experiment: LAPC-4 xenograft in vivo efficacy. Particulars: for ΔT/ΔC tumor volume: Day 56. The arrangement: species or system mice.

Structures are written as SMILES.

As for `CNC(=O)c1ccc(N2C(=S)N(c3ccc(C#N)c(C(F)(F)F)c3)C(=O)C2(C)C)cc1F` [Enzalutamide, reference compound], the ΔT/ΔC tumor volume was found to be 70% in series [1] (KuCaP‐1, 30 mg/kg daily) and 99% in series [1] (KuCaP‐1, 100 mg/kg daily).
`CC(O)(CS(=O)(=O)c1ccc(F)cc1)C(=O)Nc1ccc(C#N)c(C(F)(F)F)c1` (centres unmarked) [Bicalutamide, reference compound]: the half-maximal inhibitory concentration (IC50) (usually the concentration at which inhibition is half-maximal) in the series on LNCaP is 3.47 µM.
The same measure, in the same setting: the figure for `CC(=O)c1cc(C(=O)N[C@@H](C)Cn2ccc(-c3ccc(C#N)c(Cl)c3)n2)[nH]n1` [Keto‐darolutamide] is 3.21 µM.
On the same count and under the same terms, the figure for `C[C@H](O)c1cc(C(=O)N[C@@H](C)Cn2ccc(-c3ccc(C#N)c(Cl)c3)n2)n[nH]1` [(S,S)‐darolutamide] is 5.23 µM.
`CC(O)c1cc(C(=O)N[C@@H](C)Cn2ccc(-c3ccc(C#N)c(Cl)c3)n2)[nH]n1` (some centres unmarked) [Darolutamide]: the ΔT/ΔC tumor volume in series [2] (LAPC‐4, 100 mg/kg bi‐daily oral) amounted to 25%; in series [2] (LAPC‐4, 200 mg/kg once daily oral) it was 23%; in series [1] (KuCaP‐1, 40 mg/kg bi‐daily oral), 45%; in series [1] (KuCaP‐1, 100 mg/kg bi‐daily oral), 26%. Moreover, the “Reduction of FKBP5 expression in tumors” value in series [2] (LAPC‐4 tumors, highest treatment doses, 4 hr after final dosing) is given as 50%. In addition, the IC50 in the series on LNCaP was found to be 5.26 µM. Also, the “Maximal body weight loss” value in series [1] (KuCaP‐1, 40 mg/kg bi‐daily) was 8%; in series [1] (KuCaP‐1, 100 mg/kg bi‐daily), 6%.
For the compound `C[C@@H](Cn1ccc(-c2ccc(C#N)c(Cl)c2)n1)NC(=O)c1cc([C@@H](C)O)[nH]n1` [(S,R)‐darolutamide], in the series with LNCaP, the IC50 was found to be 4.71 µM.
